The values below come from PubChem BioAssay (NCI).

Several values for one entry are separate records, joined by “and”; a condition that tells them apart may be missing. Equal values may be shown once.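 Dose response: 5 concentrations. Exposure: 48 h. Format: 96-well plates. Endpoint: linear interpolation; highest concentration if not reached. The concentration for 50% growth inhibition is given as GI50. The concentration for full growth arrest is given as TGI.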

Test systems include SN12C renal; BT-549 breast; M14 melanoma; UACC-62 melanoma; HOP-62 NSCLC; SNB-19 CNS; SF-539 CNS; OVCAR-5 ovarian; K-562 leukemia; NCI/ADR-RES ovarian.
What all share (experiment): NCI-60 cell line screen, 48 h

As for `Clc1nc(Cl)c2ncn(Cc3cccc(Cn4cnc5c(Cl)nc(Cl)nc54)c3)c2n1`, the GI50 in the assay on SN12C renal is 4.73 µM; with BT-549 breast, 3.35 µM; with M14 melanoma it was 2.77 µM; in the assay with UACC-62 melanoma it was 2.41 µM; in the assay on HOP-62 NSCLC, 4.97 µM; in the assay with SNB-19 CNS it was 3.02 µM. Besides, the GI50 was 1.39 µM in the assay on SF-539 CNS, 15 µM in the assay on OVCAR-5 ovarian, 3.11 µM with K-562 leukemia and 12.5 µM in the assay on NCI/ADR-RES ovarian. Also, the TGI in the assay on SN12C renal came to 18.3 µM; in the assay with BT-549 breast, 11.3 µM; in the assay with M14 melanoma it was 7.65 µM; with UACC-62 melanoma it was 5.91 µM; with HOP-62 NSCLC, 18 µM; with SNB-19 CNS, 13.7 µM. Moreover, the TGI was 3.13 µM with SF-539 CNS, 28.8 µM in the assay on OVCAR-5 ovarian, 17.1 µM in the assay with K-562 leukemia and 35 µM with NCI/ADR-RES ovarian.
In the case of `FC(F)(F)c1nc2nc(Cl)c(Cl)nc2n1CCCN1CCOCC1`, the TGI with SN12C renal, in the assay on BT-549 breast, in the assay on M14 melanoma, with UACC-62 melanoma, in the assay with HOP-62 NSCLC and with SNB-19 CNS was > 100 µM in each case. In addition, the TGI is > 100 µM in the assay with SF-539 CNS, > 100 µM with OVCAR-5 ovarian, 39.6 µM in the assay on K-562 leukemia and > 100 µM in the assay on NCI/ADR-RES ovarian.
For `Cc1nc(SCC(=O)Nc2nc(-c3ccc(Cl)cc3)cs2)n(Nc2ccccc2)c1C`, the GI50 was 2.38 µM in the assay on SN12C renal; 7.02 µM with BT-549 breast; 3.69 µM with M14 melanoma; 3.09 µM in the assay with UACC-62 melanoma; 3.06 µM in the assay with HOP-62 NSCLC; 9.41 µM in the assay with SNB-19 CNS. Also, the GI50 in the assay with SF-539 CNS was 1.9 µM; in the assay on OVCAR-5 ovarian it was 2.65 µM; with K-562 leukemia, 0.12 µM; in the assay on NCI/ADR-RES ovarian, 2.6 µM. For the same compound, the TGI came out at 10.1 µM in the assay with SN12C renal; 20.9 µM in the assay with BT-549 breast; 16 µM in the assay on M14 melanoma; 16.1 µM in the assay with UACC-62 melanoma; 9.63 µM with HOP-62 NSCLC; 24.6 µM in the assay on SNB-19 CNS. The TGI in the assay with SF-539 CNS is 4.27 µM; with OVCAR-5 ovarian, 13.5 µM; in the assay on K-562 leukemia, > 100 µM; in the assay on NCI/ADR-RES ovarian, 7.18 µM.
Take `CC(=O)OCC1OC(n2c(-c3ccc(Cl)cc3)ccc(C#N)c2=S)C(OC(C)=O)C(OC(C)=O)C1OC(C)=O` (configuration not stated): the TGI is > 100 µM with SN12C renal; 38.9 µM and > 100 µM in the assay with BT-549 breast; > 100 µM in the assay on M14 melanoma; > 100 µM with UACC-62 melanoma; 26.1 µM and > 100 µM in the assay with HOP-62 NSCLC; 58.4 µM and > 100 µM in the assay with SNB-19 CNS. Also, the TGI is 99 µM and > 100 µM with SF-539 CNS; > 100 µM in the assay on OVCAR-5 ovarian; > 100 µM with K-562 leukemia; > 100 µM in the assay with NCI/ADR-RES ovarian. For the same compound, the GI50 in the assay on BT-549 breast was 15.9 µM and 35 µM; with SNB-19 CNS, 14.8 µM and 42.2 µM.
On to `CC(C)(C)C(=O)c1c(C(F)(F)F)n([O-])c2ccccc2[n+]1=O`, for which the GI50 in the assay on SN12C renal was 0.665 µM; with BT-549 breast, 0.428 µM; in the assay on M14 melanoma it was 1.45 µM; in the assay with UACC-62 melanoma, 1.33 µM; in the assay on HOP-62 NSCLC, 1.47 µM; with SNB-19 CNS, 0.931 µM. Besides, the GI50 was 0.846 µM with SF-539 CNS, 0.998 µM in the assay with OVCAR-5 ovarian, 0.757 µM in the assay with K-562 leukemia and 0.571 µM with NCI/ADR-RES ovarian. Also, the TGI in the assay on SN12C renal came to 2.32 µM; in the assay on BT-549 breast it was 1.59 µM; in the assay on M14 melanoma, 4.85 µM; with UACC-62 melanoma, 2.66 µM; in the assay with HOP-62 NSCLC, 2.94 µM; in the assay with SNB-19 CNS it was 2.91 µM. The TGI is 2.37 µM in the assay with SF-539 CNS, 2.15 µM with OVCAR-5 ovarian, 2.38 µM with K-562 leukemia and 2.36 µM with NCI/ADR-RES ovarian.
For the compound `Cc1ccc(S(=O)(=O)NC(=O)C2C(=O)CC3(CCCCC3)CC2=O)cc1`, the TGI with SN12C renal was 86.4 µM; in the assay on BT-549 breast it was 75 µM; with M14 melanoma, > 100 µM; in the assay with UACC-62 melanoma it was 83.8 µM; with HOP-62 NSCLC, > 100 µM; in the assay on SNB-19 CNS it was > 100 µM. Further, the TGI is 77.5 µM in the assay on SF-539 CNS, > 100 µM in the assay with OVCAR-5 ovarian, > 100 µM in the assay on K-562 leukemia and 37.9 µM with NCI/ADR-RES ovarian.
For `C=C1C(=O)O[C@H]2C[C@@H]1CC/C(C)=C/CC/C(C)=C/CC[C@H]2C`, the GI50 is 20.6 µM in the assay with SN12C renal; 17.1 µM with BT-549 breast; 14.2 µM in the assay on M14 melanoma; 19.3 µM in the assay with UACC-62 melanoma; 12.5 µM in the assay with HOP-62 NSCLC; 23.2 µM in the assay on SNB-19 CNS. Also, the GI50 with SF-539 CNS was 15.7 µM; in the assay on OVCAR-5 ovarian it was 17.2 µM; with K-562 leukemia it was 14 µM; with NCI/ADR-RES ovarian, 7.43 µM. Moreover, the TGI turned out to be 39 µM in the assay on SN12C renal; 41.5 µM in the assay on BT-549 breast; 29.3 µM in the assay with M14 melanoma; 34.6 µM with UACC-62 melanoma; 27.1 µM in the assay on HOP-62 NSCLC; 55.2 µM in the assay with SNB-19 CNS. Moreover, the TGI is 33.6 µM in the assay on SF-539 CNS, 34.6 µM with OVCAR-5 ovarian, > 57.1 µM with K-562 leukemia and 21.5 µM in the assay on NCI/ADR-RES ovarian.
Take `COc1cc(OC)cc(N(CCNC(C)C)c2ccc3ncc(-c4cnn(C)c4)nc3c2)c1`: the GI50 in the assay on SN12C renal was 3.96 µM; in the assay with BT-549 breast it was 2.78 µM; in the assay with M14 melanoma, 4.45 µM; in the assay with UACC-62 melanoma it was 6.76 µM; in the assay on HOP-62 NSCLC, 4.63 µM; in the assay on SNB-19 CNS, 10.9 µM. The GI50 in the assay on SF-539 CNS is 0.586 µM; with OVCAR-5 ovarian, 5.42 µM; in the assay on K-562 leukemia, 2.11 µM; in the assay on NCI/ADR-RES ovarian it was 5.8 µM. Also, the TGI in the assay on SN12C renal worked out at 15.9 µM; in the assay with BT-549 breast, 17.9 µM; in the assay with M14 melanoma, 18.6 µM; in the assay on UACC-62 melanoma, 21.5 µM; in the assay on HOP-62 NSCLC, 20 µM; with SNB-19 CNS, 24.9 µM. Further, the TGI in the assay on SF-539 CNS is 7.25 µM; with OVCAR-5 ovarian it was 19.8 µM; in the assay with K-562 leukemia, 10.8 µM; in the assay on NCI/ADR-RES ovarian, 22 µM.
Regarding `CCOc1ccc2nc(SCc3nc4n(n3)S(=O)(=O)c3ccccc3N4C)sc2c1`, the GI50 is > 100 µM with SN12C renal; 59.3 µM in the assay on BT-549 breast; > 100 µM in the assay on M14 melanoma; > 100 µM in the assay on UACC-62 melanoma; 50.8 µM in the assay with HOP-62 NSCLC; > 100 µM in the assay on SNB-19 CNS. Also, the GI50 with SF-539 CNS was 53.8 µM; with OVCAR-5 ovarian, > 100 µM; in the assay on K-562 leukemia, 71.2 µM; with NCI/ADR-RES ovarian, > 100 µM. In addition, the TGI in the assay on SN12C renal, with BT-549 breast, in the assay on M14 melanoma, in the assay with UACC-62 melanoma, in the assay on HOP-62 NSCLC and in the assay with SNB-19 CNS was > 100 µM each time. Also, the TGI in the assay with SF-539 CNS, with OVCAR-5 ovarian, in the assay on K-562 leukemia and in the assay with NCI/ADR-RES ovarian was > 100 µM in each case.
Consider `CCCC(=O)NC1=C(Cl)C(=O)c2ccccc2C1=O`, for which the TGI in the assay with SN12C renal turned out to be 31 µM; in the assay with BT-549 breast, 16.7 µM; in the assay with M14 melanoma, 13 µM; in the assay on UACC-62 melanoma, 10.3 µM; in the assay with HOP-62 NSCLC, 25.7 µM; with SNB-19 CNS, 36.4 µM. In addition, the TGI with SF-539 CNS is 7.33 µM; with OVCAR-5 ovarian it was 15.4 µM; in the assay on K-562 leukemia it was 7.43 µM; with NCI/ADR-RES ovarian, > 23.2 µM.
With `COc1cc(-c2cc3ncccc3c3nc(N)c4cccnc4c23)cc(OC)c1OC`, the GI50 in the assay on SN12C renal was 1.01 µM; in the assay with BT-549 breast, 0.285 µM; in the assay with M14 melanoma, 0.284 µM; in the assay with UACC-62 melanoma, 0.358 µM; with HOP-62 NSCLC, 0.599 µM; in the assay on SNB-19 CNS, 0.737 µM. Further, the GI50 was 0.361 µM in the assay with SF-539 CNS, 4.98 µM in the assay on OVCAR-5 ovarian, 0.169 µM in the assay on K-562 leukemia and 0.492 µM in the assay on NCI/ADR-RES ovarian. Further, the TGI in the assay with SN12C renal is > 100 µM; in the assay with BT-549 breast, 1.88 µM; in the assay on M14 melanoma it was 3.02 µM; with UACC-62 melanoma, 19.4 µM; in the assay with HOP-62 NSCLC, 87.1 µM; with SNB-19 CNS, > 100 µM. The TGI was 2.6 µM in the assay on SF-539 CNS, > 100 µM in the assay on OVCAR-5 ovarian, 14.5 µM in the assay with K-562 leukemia and 23.4 µM with NCI/ADR-RES ovarian.
Consider `COc1cc(/C=C2\C(=O)Nc3cc(C)c(O)cc32)cc(OC)c1OC`, for which the GI50 with SN12C renal is 6.07 µM; in the assay with BT-549 breast, 1.86 µM; in the assay with M14 melanoma, 4.45 µM; with UACC-62 melanoma, 3.82 µM; with HOP-62 NSCLC, 11.7 µM; in the assay on SNB-19 CNS, 10.6 µM. Further, the GI50 in the assay with SF-539 CNS is 5.41 µM; in the assay on OVCAR-5 ovarian, 13.5 µM; in the assay with K-562 leukemia it was 1.67 µM; in the assay with NCI/ADR-RES ovarian, 5.01 µM. Besides, the TGI in the assay on SN12C renal came to 23.1 µM; in the assay on BT-549 breast it was 6.26 µM; in the assay on M14 melanoma, 17.3 µM; in the assay on UACC-62 melanoma, 16.8 µM; in the assay on HOP-62 NSCLC, 37.4 µM; in the assay with SNB-19 CNS, 34.3 µM. In addition, the TGI in the assay with SF-539 CNS is 19.6 µM; in the assay with OVCAR-5 ovarian it was 30.4 µM; in the assay with K-562 leukemia, 10.4 µM; with NCI/ADR-RES ovarian, 48.1 µM.
As to `Cc1cc(=O)oc2cc(OC(=O)N(C)C)c(Cl)cc12`, the TGI was > 100 µM in the assay on SN12C renal; > 100 µM with BT-549 breast; > 100 µM with M14 melanoma; 83.2 µM with UACC-62 melanoma; 79 µM in the assay with HOP-62 NSCLC; > 100 µM in the assay on SNB-19 CNS. The TGI in the assay with SF-539 CNS, with OVCAR-5 ovarian, in the assay on K-562 leukemia and in the assay on NCI/ADR-RES ovarian was > 100 µM in each case.
